The subject of assay [1] is Cladosporium cucumerinum. Kind of assay: Mycelial growth test. In kind it is cell-based. The conditions noted are these: Cladosporium cucumerinum, CC, read-out: Percent Fungus Growth Inhibition. From the text: |CC = Cladosporium cucumerinum
Assay [2] deals with Erysiphe polygoni. The assay can be described thus: whole plant or invertebrate. The settings on record: foliar, 24 h, read-out: Percent Disease Control, curative, bean powdery mildew.

Here are results for one molecule from US4450269A, “Mono-5-substituted-3-chloro-4H-1,2,6-thiadiazin-4-one antifungal agents” (FMC Corporation, priority 1980, dated 1984).

In general, inhibition refers to the percentage by which the read-out fell short of the control.

Consider `COc1cc(Oc2nsnc(Cl)c2=O)cc(OC)c1C(C)=O` [Compound 61, 3-[(4-acetyl-3,5-dimethoxy)-phenoxy]-5-chloro-4H--1,2,6-thiadiazin-4-one], for which the inhibition at 5 ppm in assay [1] (72 h, 5 ppm) amounted to 6%. The inhibition at 10 ppm in assay [1] (72 h, 10 ppm) came out at 23%. In addition, the inhibition at 40 ppm in assay [1] (72 h, 40 ppm) came out at 52%. For the same molecule, the inhibition at 20 ppm in assay [1] (CC20, 72 h, 20 ppm) came to 32%. The pest or weed control at 150 ppm in assay [2] is 0%.
